ChEMBL document CHEMBL1149977, “Synthesis of 1-(2-aminopropyl)benzimidazoles, structurally related to the TIBO derivative R82150, with activity against human immunodeficiency virus” (Bioorg Med Chem Lett, 1993)

Tests used:
[1] = target: Human immunodeficiency virus type 1 reverse transcriptase (Human immunodeficiency virus 1) (UniProt Q72547); test: Tested for the inhibition of HIV-1 reverse transcriptase at a concentration of 100 ug/mL using a ribosomal RNA template
CEM-SS [2] = test: Tested for the cytotoxicity against CEM-SS cells (determined by the inhibition of [3H]-thymidine uptake); format: functional; conditions: Homo sapiens
[3] = target: Human immunodeficiency virus type 1 reverse transcriptase (Human immunodeficiency virus 1) (UniProt Q72547); test: Tested for the inhibition of HIV-1 reverse transcriptase at a concentration of 10 ug/mL using a ribosomal RNA template
CEM-SS [4] = test: Tested for the inhibition of HIV-1 in CEM-SS cells measured using Syncytial assay; format: functional, cell-based; conditions: Homo sapiens
[5] = Selectivity index was determined by the ratio of CC50 to IC50; format: functional
[6] = target: Human immunodeficiency virus type 1 reverse transcriptase (Human immunodeficiency virus 1, UniProt Q72547); test: Tested for the inhibition of HIV-1 reverse transcriptase using a ribosomal RNA template

| IC50 [6] | SMILES | inhibition [1] | CC50 (CEM-SS [2]) | inhibition [3] | IC50 (CEM-SS [4]) | Selectivity index [5] |
| --- | --- | --- | --- | --- | --- | --- |
|  | C=CCNC(C)Cn1c(S)nc2ccccc21 (stereo not drawn) | 29% | > 100 µM | 4.5% | 28 µM |  |
|  | CC(Cn1c(S)nc2ccccc21)N(C)Cc1ccccc1 (stereo not drawn) | 31% | 79 µM | 13% | 20 µM |  |
|  | CC(C)=CCN1Cc2cccc3[nH]c(=S)n(c23)C[C@@H]1C |  | 79 µM |  | 0.026 µM |  |
|  | CC(Cn1c(S)nc2ccccc21)NCc1ccccc1 (stereo not drawn) | 36% | 82 µM | 17% | 4.3 µM | 19 |
|  | CC(C)=CCNC(C)Cn1c(S)nc2ccccc21 (stereo not drawn) | 46% | 81 µM | 19% | 23 µM |  |
|  | C=CCN(C)C(C)Cn1c(S)nc2ccccc21 (stereo not drawn) |  | > 100 µM |  | 23 µM |  |
|  | CC(C)=CCN(C)C(C)Cn1c(S)nc2ccccc21 (stereo not drawn) | 34% | > 100 µM | 19% | 14 µM |  |
| 0.0155 µM | CC(C)=CCN1Cc2cc(Cl)cc3[nH]c(=S)n(c23)C[C@@H]1C |  | 35 µM |  | 0.055 µM |  |
